Assay results as given in patent US20140242093A1, “METHODS AND COMPOSITIONS FOR MODULATING THE INNATE IMMUNE RESPONSE AND/OR MYOGENESIS IN A MAMMALIAN SUBJECT” (FRED HUTCHINSON CANCER RESEARCH CENTER, priority 2011, published 2014).

What was measured:
[1] = system: 31-bp oligonucleotides containing the putative DUX4 binding site; test: Electromobility shift assay (EMSA); design: species or system human; conditions: in vitro translated protein; TRIM48, CSF1R, THE1D oligos
Protocol: EMSA was performed with ^32P-labeled 31-bp oligonucleotides from endogenous genomic sequences containing the putative DUX4 binding site as probes (sequences below; only forward shown). Radiolabeled probes were incubated with in vitro translated protein generated from pCS2-DUX4-fl or pCS2-DUX4-s^2 vectors using the TNT SP6 Coupled Wheat Germ Extract System (Promega) according to manufacturer's instructions. To obtain supershift of protein-DNA complexes, 0.1 μg of E14-3 anti-DUX4 rabbit monoclonal antibody was added to the mixtures. For competition experiments, excess unlabeled probes of either wild-type or mutant sequences were included in the binding reaction. The gels were prepared and run as previously described (Knoepfler et al., 1999).

[2] = system: normal skeletal muscle cells; test: RT-PCR of cancer testis antigens in transduced normal skeletal muscle cells; format: cell-based, human; conditions: RT-PCR vs lenti-GFP
Text: The results were normalized to an internal control standard of either 18S or GAPDH.

[3] = system: Cultured control human myoblasts; test: Beta-defensin 3 and innate immune response, real-time qPCR of IFIH1, ISG20, DEFB103; format: cell-based
Protocol: Cultured control human myoblasts were grown to 80% confluence and infected with equivalent titers of lenti-GFP, lenti-DUX4-s and lenti-DUX4-fl in growth media supplemented with 8 μg/mL polybrene. Expression of innate immune responsive genes including IFIH1 (MDA5), ISG20 and DEFB103 were assessed by real-time qPCR as previously described at 24 hours (primer sequences below). For conditioned media, cells were infected with lenti-DUX4-fl for 12 hours, thoroughly washed 3 times with PBS and switched to fresh growth media to condition for 12 hours. Control conditioned media was produced from cells not infected with any lentivirus. Myoblasts were infected with lenti-GFP in either control conditioned media, lenti-DUX4-fl conditioned media or regular growth media supplemented with 1 μM human β-defensin 3 (Peptides International, Louisville, Ky.). Expression of innate immune responsive genes were examined after 24 hours.

[4] = system: human rhabdomyosarcoma cell line RD; test: Luciferase reporter assay with DUX4 binding sites; format: cell-based
Protocol: The DUX4 binding site in the ZSCAN4 pGL3-promoter construct was either reversed in orientation (as shown in FIG. 3D) or moved downstream of the reporter gene (as shown in FIG. 3E). […] Transfections and luciferase assays were done as in main methods. Data are given as the averages±SD of triplicates.
Transient DNA transfections of RD cells were performed using SuperFect (Qiagen) according to manufacturer specifications. Briefly, 3×10^5 cells were seeded per 35 mm plate the day prior to transfection. […] Cells were lysed 24 h post-transfection in Passive Lysis Buffer (Promega). Luciferase activities were quantified using reagents from the Dual-Luciferase Reporter Assay System (Promega) following manufacturer's instructions. Light emission was measured using BioTek Synergy2 luminometer. Luciferase data are given as the averages±SD of at least triplicates.

[5] = system: HCT116, primary dendritic cells, JJ and FS; test: Real-time PCR of PRAMEF1 in transduced HCT116, primary dendritic cells, JJ and FS cell lines; format: cell-based, human
Protocol: HCT116 cells were infected with a control lenti-GFP or with lenti-DUX4-fl and the abundance of PRAMEF1 mRNA measured relative to a constitutively expressed gene, RPL13a.
Primary dendritic cells and the tumor cell lines derived from patients with chondrosarcomas designated JJ and FS (described in Jagasia, et al., 1996, supra) were transduced with lentiviral constructs expressing a control gene, green fluorescent protein (GFP), or DUX4fl. PRAMEF1 mRNA was measured by real-time PCR relative to a constitutively expressed control, RPL13a.

For “DUX4-fl: full-length DUX4 protein (SEQ ID NO:110), expressed from lentiviral or pCS2 vectors or in vitro translated”, the “binding to DUX4 core motifs” value [1] was “binds the core motifs present in both MaLR-associated and non-repeat associated sites”, the “induction of cancer testis antigens BAGE, MAGEA4, MAGEA9, SSX1, SSX2, SSX4 and a PRAME family member” value [2] was “over 2 fold” and the “expression of DEFB103A/B (β-defensin 3)” value ([3]; FIG. 7B) was “robustly induced expression of DEFB103A/B”. For the same substance, the “induction of the innate immune response in myoblasts” value ([3]; RT-qPCR, similar titers, FIG. 7A) was “did not”, the “luciferase reporter with DUX4 binding sites from LTRs at a MaLR THE1D element” value [4] was “activated transcription of a luciferase reporter” and the “luciferase expression from pGL3-promoter reporter with 31 bp DUX4 binding site” value ([4]; TRIM48 or ZSCAN4 site, co-transfection in RD cells) was “significantly induced luciferase expression”. For the same substance, the PRAMEF1 gene expression [5] was “robust activation of the PRAMEF1 gene”.
